Reference: the NIST ThermoML archive (doi:10.1016/j.jct.2006.10.017)

Legend:
[1] = xn = mol fraction of the nth substance listed; conditions: 101 kPa, Liquid
[2] = refractive index (Na D-line) (dimensionless); xn = mol fraction of the nth substance listed; conditions: 101 kPa, Liquid

COS(=O)(=O)[O-].Cn1cc[n+](C)c1 [1,3-dimethylimidazolium methylsulfate] + CCO
Conditions	mass density, 293.15 K [kg/m3]	mass density, 298.15 K [kg/m3]	mass density, 303.15 K [kg/m3]	refractive index, 293.15 K	refractive index, 298.15 K	refractive index, 303.15 K	speed of sound, 293.15 K [m/s]	speed of sound, 298.15 K [m/s]	speed of sound, 303.15 K [m/s]
[1], x1 = 0.0738	891.5	887.4	883.3	–	–	–	1241	1226	1211
[1], x1 = 0.1356	959.7	955.7	951.7	–	–	–	1305	1291	1277
[1], x1 = 0.2275	1040.6	1036.7	1032.8	–	–	–	1396	1383	1370
[1], x1 = 0.3317	1111.6	1107.8	1104	–	–	–	1490	1477	1465
[1], x1 = 0.429	1163.9	1160.2	1156.5	–	–	–	1568	1555	1542
[1], x1 = 0.5395	1211.1	1207.5	1203.8	–	–	–	1642	1629	1617
[1], x1 = 0.6331	1243.6	1239.9	1236.3	–	–	–	1693	1681	1668
[1], x1 = 0.7308	1272	1268.4	1264.8	–	–	–	1737	1725	1713
[1], x1 = 0.8142	1293	1289.3	1285.7	–	–	–	1769	1757	1745
[1], x1 = 0.9081	1313.3	1309.7	1306.1	–	–	–	1800	1787	1775
[1], x1 = 0.9512	1321.7	1318.1	1314.5	–	–	–	1812	1800	1788
[1], x1 = 1	1330.9	1327.2	1323.7	–	–	–	1826	1813	1801
[2], x1 = 0.0738	–	–	–	1.3881	1.38734	1.38689	–	–	–
[2], x1 = 0.1356	–	–	–	1.40426	1.40398	1.40322	–	–	–
[2], x1 = 0.2275	–	–	–	1.42272	1.42173	1.42109	–	–	–
[2], x1 = 0.3317	–	–	–	1.43794	1.43648	1.4356	–	–	–
[2], x1 = 0.429	–	–	–	1.44915	1.44761	1.44677	–	–	–
[2], x1 = 0.5395	–	–	–	1.45944	1.45819	1.45699	–	–	–
[2], x1 = 0.6331	–	–	–	1.4665	1.4651	1.46385	–	–	–
[2], x1 = 0.7308	–	–	–	1.472	1.47068	1.4694	–	–	–
[2], x1 = 0.8142	–	–	–	1.47624	1.47489	1.47353	–	–	–
[2], x1 = 0.9081	–	–	–	1.48029	1.47895	1.47763	–	–	–
[2], x1 = 0.9512	–	–	–	1.48211	1.48079	1.47949	–	–	–
[2], x1 = 1	–	–	–	1.48392	1.4827	1.48129	–	–	–

CCCCn1cc[n+](C)c1.F[P-](F)(F)(F)(F)F [1-butyl-3-methylimidazolium hexafluorophosphate] + CCO
Conditions	mass density, 293.15 K [kg/m3]	mass density, 298.15 K [kg/m3]	mass density, 303.15 K [kg/m3]	refractive index, 293.15 K	refractive index, 298.15 K	refractive index, 303.15 K	speed of sound, 293.15 K [m/s]	speed of sound, 298.15 K [m/s]	speed of sound, 303.15 K [m/s]
[1], x1 = 0.0009	791.5	787.4	783.1	–	–	–	1163	1144	1126
[1], x1 = 0.0021	794.3	790.1	785.8	–	–	–	1162	1145	1128
[1], x1 = 0.0033	797	792.8	788.5	–	–	–	1164	1146	1128
[1], x1 = 0.0056	802.3	798.1	793.8	–	–	–	1166	1147	1130
[1], x1 = 0.496	1246.7	1242.2	1237.9	–	–	–	1371	1359	1347
[1], x1 = 0.5032	1249.4	1245	1240.7	–	–	–	1373	1361	1349
[1], x1 = 0.5981	1282	1277.6	1273.4	–	–	–	1397	1384	1372
[1], x1 = 0.7045	1311.6	1307.3	1303	–	–	–	1417	1404	1391
[1], x1 = 0.8003	1333.9	1329.6	1325.4	–	–	–	1431	1418	1405
[1], x1 = 0.9002	1354.1	1349.9	1345.7	–	–	–	1443	1430	1418
[1], x1 = 0.9834	1368.8	1364.7	1360.5	–	–	–	1454	1440	1428
[1], x1 = 1	1371.6	1367.3	1363	–	–	–	1455	1443	1431
[2], x1 = 0.0009	–	–	–	1.36162	1.35956	1.35751	–	–	–
[2], x1 = 0.0021	–	–	–	1.36196	1.3599	1.35781	–	–	–
[2], x1 = 0.0033	–	–	–	1.36222	1.36018	1.35812	–	–	–
[2], x1 = 0.0056	–	–	–	1.36281	1.3608	1.35871	–	–	–
[2], x1 = 0.496	–	–	–	1.40171	1.40034	1.3994	–	–	–
[2], x1 = 0.5032	–	–	–	1.40193	1.40055	1.39959	–	–	–
[2], x1 = 0.5981	–	–	–	1.40432	1.40294	1.40176	–	–	–
[2], x1 = 0.7045	–	–	–	1.40639	1.40507	1.40376	–	–	–
[2], x1 = 0.8003	–	–	–	1.4079	1.40656	1.40522	–	–	–
[2], x1 = 0.9002	–	–	–	1.4093	1.40799	1.40666	–	–	–
[2], x1 = 0.9834	–	–	–	1.41052	1.40923	1.40795	–	–	–
[2], x1 = 1	–	–	–	1.41069	1.40937	1.40808	–	–	–

CCCCn1cc[n+](C)c1.COS(=O)(=O)[O-] [1-butyl-3-methylimidazolium methyl sulfate] + CCO
Conditions	mass density, 293.15 K [kg/m3]	mass density, 298.15 K [kg/m3]	mass density, 303.15 K [kg/m3]	refractive index, 293.15 K	refractive index, 298.15 K	refractive index, 303.15 K	speed of sound, 293.15 K [m/s]	speed of sound, 298.15 K [m/s]	speed of sound, 303.15 K [m/s]
[1], x1 = 0.0501	860.2	856.4	852.2	–	–	–	1218	1203	1189
[1], x1 = 0.1015	916.9	913	909	–	–	–	1277	1262	1248
[1], x1 = 0.1961	993.7	990	986.2	–	–	–	1358	1343	1324
[1], x1 = 0.299	1052.2	1048.6	1044.9	–	–	–	1425	1412	1392
[1], x1 = 0.3914	1091.3	1087.8	1084.1	–	–	–	1479	1466	1446
[1], x1 = 0.5025	1127.3	1123.7	1120.1	–	–	–	1538	1525	1508
[1], x1 = 0.6073	1153.5	1150	1146.5	–	–	–	1576	1563	1553
[1], x1 = 0.6982	1172	1168.5	1165	–	–	–	1598	1584	1574
[1], x1 = 0.8002	1189.2	1185.6	1182.2	–	–	–	1626	1612	1602
[1], x1 = 0.8992	1203.1	1199.7	1196.3	–	–	–	1650	1636	1626
[1], x1 = 0.9498	1209.5	1206.1	1202.7	–	–	–	1659	1645	1633
[1], x1 = 1	1215.6	1212.2	1208.8	–	–	–	1671	1658	1645
[2], x1 = 0.0501	–	–	–	1.38149	1.3797	1.37885	–	–	–
[2], x1 = 0.1015	–	–	–	1.39827	1.39667	1.39541	–	–	–
[2], x1 = 0.1961	–	–	–	1.42043	1.41884	1.41656	–	–	–
[2], x1 = 0.299	–	–	–	1.43625	1.43478	1.43335	–	–	–
[2], x1 = 0.3914	–	–	–	1.44713	1.4456	1.44408	–	–	–
[2], x1 = 0.5025	–	–	–	1.45714	1.45586	1.45509	–	–	–
[2], x1 = 0.6073	–	–	–	1.46429	1.46284	1.46136	–	–	–
[2], x1 = 0.6982	–	–	–	1.46926	1.4678	1.46639	–	–	–
[2], x1 = 0.8002	–	–	–	1.47391	1.47249	1.47111	–	–	–
[2], x1 = 0.8992	–	–	–	1.47757	1.47623	1.47485	–	–	–
[2], x1 = 0.9498	–	–	–	1.47901	1.47766	1.47622	–	–	–
[2], x1 = 1	–	–	–	1.48077	1.47942	1.47806	–	–	–

CCCCCCn1cc[n+](C)c1.F[P-](F)(F)(F)(F)F [1-hexyl-3-methylimidazolium hexafluorophosphate] + CCO
Conditions	mass density, [1] [kg/m3]	refractive index, [2]	speed of sound, [1] [m/s]
293.15 K, x1 = 0.0198	830	1.36597	1164
293.15 K, x1 = 0.2033	1055.6	1.39358	1248
293.15 K, x1 = 0.312	1125.6	1.40092	1300
293.15 K, x1 = 0.3897	1161.8	1.40471	1329
293.15 K, x1 = 0.5002	1201.4	1.40893	1360
293.15 K, x1 = 0.5982	1228.4	1.41163	1380
293.15 K, x1 = 0.6961	1250.2	1.41394	1396
293.15 K, x1 = 0.7902	1267.6	1.41562	1410
293.15 K, x1 = 0.9033	1285.2	1.41784	1423
293.15 K, x1 = 0.992	1297	1.41884	1435
293.15 K, x1 = 1	1297.9	1.41923	1438
298.15 K, x1 = 0.0198	825.8	1.36482	1150
298.15 K, x1 = 0.0465	873.5	1.37109	1160
298.15 K, x1 = 0.0991	948.7	1.38024	1185
298.15 K, x1 = 0.2033	1051.6	1.3921	1237
298.15 K, x1 = 0.312	1121.5	1.39964	1288
298.15 K, x1 = 0.3897	1157.7	1.40388	1317
298.15 K, x1 = 0.5002	1197.2	1.4081	1348
298.15 K, x1 = 0.5982	1224.4	1.41098	1368
298.15 K, x1 = 0.6961	1246.2	1.41313	1384
298.15 K, x1 = 0.7902	1263.5	1.41472	1397
298.15 K, x1 = 0.9033	1281.1	1.41645	1410
298.15 K, x1 = 0.992	1292.8	1.41775	1421
298.15 K, x1 = 1	1293.7	1.41787	1424
303.15 K, x1 = 0.0198	821.8	1.36297	1134
303.15 K, x1 = 0.0465	869.8	1.36941	1144
303.15 K, x1 = 0.0991	944.8	1.3787	1169
303.15 K, x1 = 0.2033	1047.5	1.39057	1226
303.15 K, x1 = 0.312	1117.3	1.39816	1277
303.15 K, x1 = 0.3897	1153.6	1.40239	1306
303.15 K, x1 = 0.5002	1193.3	1.40693	1336
303.15 K, x1 = 0.5982	1220.4	1.40986	1357
303.15 K, x1 = 0.6961	1242.2	1.41197	1372
303.15 K, x1 = 0.7902	1259.5	1.41366	1386
303.15 K, x1 = 0.9033	1277	1.41525	1399
303.15 K, x1 = 0.992	1288.7	1.41635	1409
303.15 K, x1 = 1	1289.6	1.41643	1411
